Ten compounds from patent publication US10457677B2 (priority 2015, dated 2019) can be followed below.

The structures appear in SMILES notation. pIC50: −log10 of the molar value. Read-outs that look alike come from different tables or passages of the source.

One assay concerns the target mTOR (human) (Homo sapiens (Human), UniProt P42345). Description: mTOR (human) kinase assay, [γ-33P-ATP] filter assay. The class given is biochemical. The method, then: Furthermore, the effect, in particular inhibition, of other kinases and thus the selectivity of the compounds according to the invention can be determined with the aid of the following assay:
mTOR (human) was incubated with 50 mM HEPES pH 7.5, 1 mM EGTA, 0.01% Tween 20, 2 mg/ml of the substrate, 3 mM MnCl2 and [γ-^33P-ATP] (specific activity approximately 500 cpm/pmol, concentration as necessary). The reaction was initiated by addition of MgATP solution. After incubation at room temperature for 40 minutes, the reaction was stopped by addition of 3% phosphoric acid. 10 μl of the reaction solution were then transferred dropwise onto a P30 filtermat and washed three times for 5 min in 75 mM phosphoric acid and once in methanol, dried and evaluated by means of liquid scintillation counting.

Assay [1] has as its target purified human recombinant ATM (ataxia telangiectasia mutated), full length (Homo sapiens (Human), UniProt Q13315). Description: ATM kinase assay - determination of ATM inhibition (IC50 ATM), TR-FRET. The class given is biochemical. In outline: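 Full-length enzyme, expressed in a mammalian cell line, pre-incubated 15 min with inhibitor in 25 mM HEPES pH 8.0, 10 mM Mg(CH3COO)2, 1 mM MnCl2, 0,1% BSA, 0,01% Brij 35, 5 mM DTT. Full-length cmyc-p53 (Sf21-expressed) and ATP then added, 30-35 min at 22° C. EDTA stop; p53 S15 phosphorylation read by TR-FRET antibodies.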

A further assay has as its target PI3K p110δ/p85α (human) (Homo sapiens (Human), UniProt O00329). Description: PI3K p110δ/p85α (human), non-radioactive assay (HTRF). The class given is biochemical. As to conditions: for ratio IC50 (ATM) vs PI3Kdelta, selectivity with respect to PI3Kdelta: as printed:
The method, then:
PI3K p110δ/p85α (Human), Non-radioactive Assay
(§1) PI3K p110δ/p85α (human) was incubated in an assay buffer comprising 10 μM phosphati-dylinositol 4,5-bisphosphate and MgATP (concentration as necessary). The reaction was initiated by addition of MgATP solution. After an incubation time of 30 min at room temperature, the reaction was stopped by addition of a solution consisting of EDTA and biotinylated phosphatidylinositol 3,4,5-trisphosphate. Finally, the detection buffer, consisting of a europium-labelled anti-GST monoclonal antibody, a GST-labelled GRP1 PH domain and streptavidin allophycocyanin, was added. The plate was read out via homogeneous time-resolved fluorescence (HTRF) and the corresponding signals were evaluated via the formula HTRF=10000×(Em665nm/Em620nm).
A general note: In TR-FRET formats the signal depends on donor and acceptor labels being close together.

Assay [2] concerns phosphorylation of CHK2 (phospho-Thr68) in HCT116 cells. As to the kind of experiment: Cellular pCHK2 assay: bleomycin-induced phosphorylation of CHK2 (phospho-Thr68), immunofluorescence high-content analysis. As to conditions: Homo sapiens, HCT-116, 4 h, read-out: IC50 (pCHK2). It is filed as cell-based, human. The source says: For the identification of substances which inhibit the phosphorylation of the protein kinase CHK2 at the amino acid threonine 68, an immunofluorescence-based “high content” analysis assay was used in HCT116 cells.
In vitro cell-based immunofluorescence assay for the identification of inhibitors of bleomycin-induced phosphorylation of CHK2 (phospho-Thr68) in the human colon carcinoma cell line HCT116:
HCT116 cells are sown out in a defined cell density in 384-well plates in culture medium (DMEM high glucose, 2 mM GlutaMax, 1 mM Na pyruvate, 10% FCS) and incubated overnight at 37° C. and 10% of CO2. On the following day, the test substances are added in a defined concentration range (1 nM to 30 μM) in combination with 10 μM bleomycin, where the concentration of the solvent DMSO is kept constant at 0.5%. […] Parallel staining of DNA with propidium iodide enables determination of the cell count. The pCHK2 signal is detected using a high-content imager (Molecular Devices IMX Ultra) and automatic image analysis using the MetaXpress software belonging to the instrument. The number of cell nuclei which have a pCHK2 signal above a defined background is determined.

The target of the next assay is PI3K p110α/p85α (human) (Homo sapiens (Human), UniProt P42336). Description: PI3K p110α/p85α (human), non-radioactive assay (HTRF). The class given is biochemical. As to conditions: for ratio IC50 (ATM) vs PI3Kalpha, selectivity with respect to PI3Kalpha: as printed:
The method, then: PI3K p110α/p85α (Human), Non-radioactive Assay
as §1, with “p110α/p85α” for “p110δ/p85α”, “After” for “After an”, “incubation” for “incubation time of 30 min”, “temperature for 40 minutes,” for “temperature,”

Another assay concerns the target PI3K (p120γ) (human) (Homo sapiens (Human), UniProt P48736). Description: PI3K (p120γ) (human), non-radioactive assay (HTRF). The class given is biochemical. As to conditions: as printed:
How it is done:
PI3K (p120γ) (Human), Non-radioactive Assay
as §1, with “(p120γ)” for “p110δ/p85α”, “HTRF=10000×(Em665nm/Em620nm). • MgATP=magnesium 5′-O—[hydroxy({[(hydroxyphosphinato)oxy]phosphinato}oxy)phosphoryl]adenosine • MgCl2=magnesium dichloride • EGTA=ethylene glycol bis(aminoethyl ether) N,N,N′,N′-tetraacetic acid • Tween 20=polysorbate 20 Medicament/pharmaceutical Composition” for “HTRF=10000×(Em665nm/Em620nm).”

Sequence of purified human recombinant ATM (ataxia telangiectasia mutated), full length (Q13315 whole entry, change not shown): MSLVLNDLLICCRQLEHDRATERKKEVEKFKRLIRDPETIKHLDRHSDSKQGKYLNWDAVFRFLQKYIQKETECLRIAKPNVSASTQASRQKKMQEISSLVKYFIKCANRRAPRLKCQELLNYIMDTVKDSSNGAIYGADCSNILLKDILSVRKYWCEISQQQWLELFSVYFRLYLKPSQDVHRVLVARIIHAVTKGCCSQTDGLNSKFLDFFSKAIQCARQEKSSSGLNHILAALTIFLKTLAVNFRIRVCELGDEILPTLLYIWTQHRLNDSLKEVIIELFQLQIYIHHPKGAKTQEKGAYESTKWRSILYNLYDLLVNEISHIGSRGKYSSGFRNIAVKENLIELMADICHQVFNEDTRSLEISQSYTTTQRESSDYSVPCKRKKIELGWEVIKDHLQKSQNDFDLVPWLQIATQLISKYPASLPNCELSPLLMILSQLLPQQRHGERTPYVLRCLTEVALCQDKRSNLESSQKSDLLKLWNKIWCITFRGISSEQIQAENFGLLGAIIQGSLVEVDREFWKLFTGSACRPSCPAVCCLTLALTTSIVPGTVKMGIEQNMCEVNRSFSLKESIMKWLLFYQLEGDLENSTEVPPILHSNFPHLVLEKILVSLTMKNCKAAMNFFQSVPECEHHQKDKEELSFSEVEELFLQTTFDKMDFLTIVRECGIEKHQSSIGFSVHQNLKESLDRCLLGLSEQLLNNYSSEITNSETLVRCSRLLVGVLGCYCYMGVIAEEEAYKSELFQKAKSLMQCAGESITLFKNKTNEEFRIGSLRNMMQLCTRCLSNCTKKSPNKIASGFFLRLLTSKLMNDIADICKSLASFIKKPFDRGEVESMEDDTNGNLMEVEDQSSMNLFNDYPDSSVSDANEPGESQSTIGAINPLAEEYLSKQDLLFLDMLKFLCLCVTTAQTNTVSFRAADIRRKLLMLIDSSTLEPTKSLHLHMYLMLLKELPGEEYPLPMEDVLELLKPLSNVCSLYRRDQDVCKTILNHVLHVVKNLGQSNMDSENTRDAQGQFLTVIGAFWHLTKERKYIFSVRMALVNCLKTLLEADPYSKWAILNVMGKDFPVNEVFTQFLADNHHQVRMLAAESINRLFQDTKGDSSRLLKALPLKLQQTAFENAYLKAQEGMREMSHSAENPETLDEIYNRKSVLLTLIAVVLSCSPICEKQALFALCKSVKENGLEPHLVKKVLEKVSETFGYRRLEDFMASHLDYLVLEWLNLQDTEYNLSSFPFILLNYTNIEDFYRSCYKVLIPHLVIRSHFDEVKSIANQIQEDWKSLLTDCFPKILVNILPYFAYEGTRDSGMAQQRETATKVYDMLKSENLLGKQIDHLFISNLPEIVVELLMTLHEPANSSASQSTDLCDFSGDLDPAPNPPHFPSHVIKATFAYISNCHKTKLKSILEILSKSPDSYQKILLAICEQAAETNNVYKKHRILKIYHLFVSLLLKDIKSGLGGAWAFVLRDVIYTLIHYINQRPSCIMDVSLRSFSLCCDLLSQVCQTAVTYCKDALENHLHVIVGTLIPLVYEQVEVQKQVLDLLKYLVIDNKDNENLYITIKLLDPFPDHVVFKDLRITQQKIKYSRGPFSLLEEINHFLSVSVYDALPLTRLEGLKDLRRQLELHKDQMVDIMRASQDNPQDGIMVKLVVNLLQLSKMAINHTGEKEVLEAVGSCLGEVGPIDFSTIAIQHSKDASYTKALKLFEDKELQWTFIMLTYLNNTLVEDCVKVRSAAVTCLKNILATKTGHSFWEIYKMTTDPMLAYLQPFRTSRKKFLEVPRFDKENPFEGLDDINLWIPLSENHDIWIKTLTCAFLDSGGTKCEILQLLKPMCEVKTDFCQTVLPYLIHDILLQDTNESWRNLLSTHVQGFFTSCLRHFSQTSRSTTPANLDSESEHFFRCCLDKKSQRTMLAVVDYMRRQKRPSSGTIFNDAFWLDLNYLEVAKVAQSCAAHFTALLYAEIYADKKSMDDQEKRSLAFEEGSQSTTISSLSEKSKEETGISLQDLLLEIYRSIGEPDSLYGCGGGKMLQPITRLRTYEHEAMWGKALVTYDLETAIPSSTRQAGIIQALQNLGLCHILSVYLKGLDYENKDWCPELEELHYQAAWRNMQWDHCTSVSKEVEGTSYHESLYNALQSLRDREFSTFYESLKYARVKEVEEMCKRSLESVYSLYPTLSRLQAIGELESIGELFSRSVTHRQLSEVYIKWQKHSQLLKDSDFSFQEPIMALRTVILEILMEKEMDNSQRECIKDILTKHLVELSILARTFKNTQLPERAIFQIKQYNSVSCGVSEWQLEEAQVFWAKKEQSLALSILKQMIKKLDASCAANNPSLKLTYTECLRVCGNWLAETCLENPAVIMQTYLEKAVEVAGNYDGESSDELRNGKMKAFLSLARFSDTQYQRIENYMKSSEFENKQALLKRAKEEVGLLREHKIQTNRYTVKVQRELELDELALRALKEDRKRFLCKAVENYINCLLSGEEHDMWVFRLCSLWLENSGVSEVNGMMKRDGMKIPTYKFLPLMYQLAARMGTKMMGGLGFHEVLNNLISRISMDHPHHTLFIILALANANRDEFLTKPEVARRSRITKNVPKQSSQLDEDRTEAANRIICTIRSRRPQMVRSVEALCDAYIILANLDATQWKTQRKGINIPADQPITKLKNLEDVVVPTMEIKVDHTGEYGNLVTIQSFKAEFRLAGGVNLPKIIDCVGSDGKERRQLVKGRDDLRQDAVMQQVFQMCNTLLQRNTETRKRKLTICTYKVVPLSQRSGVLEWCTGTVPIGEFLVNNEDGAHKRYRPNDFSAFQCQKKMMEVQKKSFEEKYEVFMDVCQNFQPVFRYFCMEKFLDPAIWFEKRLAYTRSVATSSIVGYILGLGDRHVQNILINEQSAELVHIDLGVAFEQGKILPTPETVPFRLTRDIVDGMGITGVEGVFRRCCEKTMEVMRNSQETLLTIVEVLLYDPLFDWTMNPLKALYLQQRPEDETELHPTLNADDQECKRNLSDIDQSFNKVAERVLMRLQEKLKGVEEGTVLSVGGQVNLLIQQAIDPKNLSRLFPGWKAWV
Sequence of PI3K p110δ/p85α (human) (O00329 whole entry): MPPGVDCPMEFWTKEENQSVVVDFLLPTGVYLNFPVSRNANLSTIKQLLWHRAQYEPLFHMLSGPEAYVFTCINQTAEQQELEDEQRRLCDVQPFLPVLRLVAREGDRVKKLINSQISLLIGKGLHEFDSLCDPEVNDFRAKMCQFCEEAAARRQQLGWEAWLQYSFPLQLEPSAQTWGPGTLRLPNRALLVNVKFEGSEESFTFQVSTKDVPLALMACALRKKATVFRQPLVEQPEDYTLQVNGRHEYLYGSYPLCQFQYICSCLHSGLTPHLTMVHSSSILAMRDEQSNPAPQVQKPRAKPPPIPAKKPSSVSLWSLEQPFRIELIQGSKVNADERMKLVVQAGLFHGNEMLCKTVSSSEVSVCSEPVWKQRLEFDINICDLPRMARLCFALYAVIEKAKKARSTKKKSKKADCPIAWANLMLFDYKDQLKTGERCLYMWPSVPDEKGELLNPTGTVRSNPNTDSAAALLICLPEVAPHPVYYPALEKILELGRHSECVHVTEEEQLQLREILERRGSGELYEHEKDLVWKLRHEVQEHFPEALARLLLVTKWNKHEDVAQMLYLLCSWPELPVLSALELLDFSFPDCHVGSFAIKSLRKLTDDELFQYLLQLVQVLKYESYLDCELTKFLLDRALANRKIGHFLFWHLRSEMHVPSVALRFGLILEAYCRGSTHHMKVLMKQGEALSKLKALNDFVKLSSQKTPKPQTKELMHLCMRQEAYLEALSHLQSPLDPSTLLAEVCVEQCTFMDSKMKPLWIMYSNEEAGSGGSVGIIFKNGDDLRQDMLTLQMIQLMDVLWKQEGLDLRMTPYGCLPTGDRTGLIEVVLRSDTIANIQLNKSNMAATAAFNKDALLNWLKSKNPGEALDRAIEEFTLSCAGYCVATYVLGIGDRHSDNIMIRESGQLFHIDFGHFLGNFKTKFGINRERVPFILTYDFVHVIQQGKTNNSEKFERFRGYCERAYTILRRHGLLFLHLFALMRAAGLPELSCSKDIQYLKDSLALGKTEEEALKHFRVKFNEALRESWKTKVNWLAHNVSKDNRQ
Sequence of PI3K p110δ/p85α (human) (P27986 whole entry partner): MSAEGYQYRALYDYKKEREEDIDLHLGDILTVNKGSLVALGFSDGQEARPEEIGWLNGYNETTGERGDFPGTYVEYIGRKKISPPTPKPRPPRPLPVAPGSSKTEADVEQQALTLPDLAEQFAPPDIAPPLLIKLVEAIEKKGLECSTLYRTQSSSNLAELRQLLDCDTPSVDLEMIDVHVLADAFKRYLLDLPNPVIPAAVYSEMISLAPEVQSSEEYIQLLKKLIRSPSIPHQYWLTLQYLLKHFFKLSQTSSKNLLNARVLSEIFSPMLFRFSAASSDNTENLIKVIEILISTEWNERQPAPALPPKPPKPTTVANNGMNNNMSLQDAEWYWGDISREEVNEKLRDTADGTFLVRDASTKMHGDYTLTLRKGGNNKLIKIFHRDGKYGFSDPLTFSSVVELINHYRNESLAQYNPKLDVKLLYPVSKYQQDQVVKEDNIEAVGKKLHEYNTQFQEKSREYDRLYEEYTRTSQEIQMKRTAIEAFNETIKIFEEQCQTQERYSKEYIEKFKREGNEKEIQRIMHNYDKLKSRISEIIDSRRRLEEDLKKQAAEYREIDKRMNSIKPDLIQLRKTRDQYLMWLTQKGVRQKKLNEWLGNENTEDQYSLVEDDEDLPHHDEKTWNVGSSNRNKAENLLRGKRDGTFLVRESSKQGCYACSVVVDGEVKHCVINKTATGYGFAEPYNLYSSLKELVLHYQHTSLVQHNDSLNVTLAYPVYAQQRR

On to `CCc1cncc(C)c1-n1c(=O)n(C)c2cnc3cc(OC)c(-c4cnn(CC)c4)cc3c21` [compound 61, 1-(3-Ethyl-5-methylpyridin-4-yl)-8-(1-ethyl-1H-pyrazol-4-yl)-7-methoxy-3-methyl-1,3-dihydroimidazo[4,5-c] quinolin-2-one], for which the pIC50 at mTOR (human) was below 4.52; in assay [1], above 8.00; in assay [1] (10 μM ATP, substrate p53), above 8.00; on PI3K p110δ/p85α (human) (read-out: IC50 (PI3Kdelta)), below 4.52; in assay [2], 5.70 to 6.00; on PI3K p110α/p85α (human) (read-out: IC50 (PI3Kalpha)), below 4.52.

Regarding `COCCOc1cnc(-n2c(=O)n(C)c3cnc4cc(OC)c(-c5cnn(C)c5)cc4c32)c(F)c1` [compound 66, 1-[3-Fluoro-5-(2-methoxy-ethoxy)-2-pyridyl]-7-methoxy-3-methyl-8-(1-methylpyrazol-4-yl)imidazo-[4,5-c]quinolin-2-one], the pIC50 in assay [1] (10 μM ATP, substrate p53) is above 9.00; in assay [2], above 6.70. The “ratio IC50 (ATM) vs PI3Kdelta, selectivity with respect to PI3Kdelta” value on PI3K p110δ/p85α (human) is recorded as “at least 2000 times”. In addition, the “ratio IC50 (ATM) vs PI3Kgamma, selectivity with respect to PI3Kgamma” value at PI3K (p120γ) (human) is listed as “at least 2000 times”. The “ratio IC50 (ATM) vs PI3Kalpha, selectivity with respect to PI3Kalpha” value on PI3K p110α/p85α (human) is “at least 2000 times”.

As for `COc1cc2ncc3c(c2cc1-c1cnn(C)c1)n(-c1ncc(OCCO)cc1F)c(=O)n3C` [compound 67, 1-[3-Fluoro-5-(2-hydroxy-ethoxy)-2-pyridyl]-7-methoxy-3-methyl-8-(1-methylpyrazol-4-yl)imidazo-[4,5-c]quinolin-2-one], the pIC50 is above 6.00 in assay [1] (10 μM ATP, substrate p53) and above 6.70 in assay [2]. The “ratio IC50 (ATM) vs PI3Kdelta, selectivity with respect to PI3Kdelta” value at PI3K p110δ/p85α (human) was “at least 2000 times”. For the same compound, the “ratio IC50 (ATM) vs PI3Kgamma, selectivity with respect to PI3Kgamma” value on PI3K (p120γ) (human) is “at least 2000 times”. For the same compound, the “ratio IC50 (ATM) vs PI3Kalpha, selectivity with respect to PI3Kalpha” value at PI3K p110α/p85α (human) is “at least 2000 times”.

On to `COc1cc2ncc3c(c2cc1-c1cnn(C)c1)n(-c1ncc(OC(F)F)cc1F)c(=O)n3C` [compound 114, 1-(5-Difluoromethoxy-3-fluoropyridin-2-yl)-7-methoxy-3-methyl-8-(1-methyl-1H-pyrazol-4-yl)-1,3-dihydroimidazo[4,5-c]-quinolin-2-one], for which the pIC50 in assay [1] (10 μM ATP, substrate p53) is above 9.00; in assay [2] it was above 6.70. Moreover, the “ratio IC50 (ATM) vs PI3Kdelta, selectivity with respect to PI3Kdelta” value at PI3K p110δ/p85α (human) is recorded as “at least 2000 times”. Further, the “ratio IC50 (ATM) vs PI3Kgamma, selectivity with respect to PI3Kgamma” value on PI3K (p120γ) (human) is given as “at least 2000 times”. For the same compound, the “ratio IC50 (ATM) vs PI3Kalpha, selectivity with respect to PI3Kalpha” value at PI3K p110α/p85α (human) is “at least 2000 times”.

`COc1cc2ncc3c(c2cc1-c1c[nH]nc1C)n(-c1ncc(F)cc1F)c(=O)n3C` [compound 117, 1-(3,5-Difluoropyridin-2-yl)-7-methoxy-3-methyl-8-(3-methyl-1H-pyrazol-4-yl)-1,3-dihydroimidazo[4,5-c]-quinolin-2-one]: the pIC50 in assay [1] (10 μM ATP, substrate p53) is above 8.00; in assay [2], 6.00 to 6.70. For the same compound, on PI3K p110δ/p85α (human), the “ratio IC50 (ATM) vs PI3Kdelta, selectivity with respect to PI3Kdelta” value is “at least 2000 times”. In addition, at PI3K (p120γ) (human), the “ratio IC50 (ATM) vs PI3Kgamma, selectivity with respect to PI3Kgamma” value was “at least 2000 times”. Also, the “ratio IC50 (ATM) vs PI3Kalpha, selectivity with respect to PI3Kalpha” value at PI3K p110α/p85α (human) is given as “at least 2000 times”.

`COc1cc2ncc3c(c2cc1-c1cnn(C)c1)n(-c1cc2[nH]ccc2cn1)c(=O)n3C` [compound 120, 7-Methoxy-3-methyl-8-(1-methyl-1H-pyrazol-4-yl)-1-(1H-pyrrolo[3,2-c]pyridin-6-yl)-1,3-dihydroimidazo-[4,5-c]quinolin-2-one]: the pIC50 in assay [1] (10 μM ATP, substrate p53) is above 9.00; in assay [2] it was 6.00 to 6.70. On PI3K p110δ/p85α (human), the “ratio IC50 (ATM) vs PI3Kdelta, selectivity with respect to PI3Kdelta” value is given as “at least 2000 times”. On PI3K (p120γ) (human), the “ratio IC50 (ATM) vs PI3Kgamma, selectivity with respect to PI3Kgamma” value is listed as “at least 2000 times”. Also, at PI3K p110α/p85α (human), the “ratio IC50 (ATM) vs PI3Kalpha, selectivity with respect to PI3Kalpha” value is listed as “at least 2000 times”.

Regarding `COc1cnc(-n2c(=O)n(C)c3cnc4cc(OC)c(-c5c[nH]nc5C)cc4c32)c(F)c1` [compound 122, 1-(3-Fluoro-5-methoxy-pyridin-2-yl)-7-methoxy-3-methyl-8-(3-methyl-1H-pyrazol-4-yl)-1,3-dihydro-imidazo[4,5-c] quinolin-2-one], the pIC50 in assay [1] (10 μM ATP, substrate p53) was above 9.00; in assay [2] it was above 6.70. The “ratio IC50 (ATM) vs PI3Kdelta, selectivity with respect to PI3Kdelta” value on PI3K p110δ/p85α (human) is given as “at least 2000 times”. For the same compound, the “ratio IC50 (ATM) vs PI3Kgamma, selectivity with respect to PI3Kgamma” value on PI3K (p120γ) (human) is on record as “at least 2000 times”. Further, the “ratio IC50 (ATM) vs PI3Kalpha, selectivity with respect to PI3Kalpha” value at PI3K p110α/p85α (human) is “at least 2000 times”.

On to `COc1cc2ncc3c(c2cc1-c1cnn(C)c1)n(-c1ncc(N2CCNCC2)cc1F)c(=O)n3C` [compound 123, 1-(3-Fluoro-5-piperazin-1-yl-pyridin-2-yl)-7-methoxy-3-methyl-8-(1-methyl-1H-pyrazol-4-yl)-1,3-dihydro-imidazo[4,5-c]quinolin-2-one], for which the pIC50 in assay [1] (10 μM ATP, substrate p53) is above 8.00; in assay [2], 6.00 to 6.70. Further, the “ratio IC50 (ATM) vs PI3Kdelta, selectivity with respect to PI3Kdelta” value on PI3K p110δ/p85α (human) was “at least 2000 times”. At PI3K (p120γ) (human), the “ratio IC50 (ATM) vs PI3Kgamma, selectivity with respect to PI3Kgamma” value was “at least 2000 times”. Also, at PI3K p110α/p85α (human), the “ratio IC50 (ATM) vs PI3Kalpha, selectivity with respect to PI3Kalpha” value is “at least 2000 times”.

Regarding `CCc1cncc(F)c1-n1c(=O)n(C)c2cnc3cc(OC)c(-c4cn(C)nn4)cc3c21` [compound 126, 1-(3-Ethyl-5-fluoropyridin-4-yl)-7-methoxy-3-methyl-8-(1-methyl-1H-1,2,3-triazol-4-yl)-1,3-dihydroimidazo-[4,5-c] quinolin-2-one], the pIC50 in assay [1] (10 μM ATP, substrate p53) was above 8.00; in assay [2], 6.00 to 6.70. Moreover, the “ratio IC50 (ATM) vs PI3Kdelta, selectivity with respect to PI3Kdelta” value at PI3K p110δ/p85α (human) is listed as “at least 2000 times”. Besides, the “ratio IC50 (ATM) vs PI3Kgamma, selectivity with respect to PI3Kgamma” value at PI3K (p120γ) (human) is listed as “at least 2000 times”. Moreover, the “ratio IC50 (ATM) vs PI3Kalpha, selectivity with respect to PI3Kalpha” value on PI3K p110α/p85α (human) is on record as “at least 2000 times”.

For `COc1cc2ncc3c(c2cc1-c1cnn(C)c1)n(-c1ncc(OC2CNC2)cc1F)c(=O)n3C` [compound 205, 1-[5-(Azetidin-3-yloxy)-3-fluoropyridin-2-yl]-7-methoxy-3-methyl-8-(1-methyl-1H-pyrazol-4-yl)-1,3-dihydroimidazo[4,5-c]-quinolin-2-one], the pIC50 in assay [1] (10 μM ATP, substrate p53) was above 9.00; in assay [2] it was 6.00 to 6.70. On PI3K p110δ/p85α (human), the “ratio IC50 (ATM) vs PI3Kdelta, selectivity with respect to PI3Kdelta” value is recorded as “at least 2000 times”. On PI3K (p120γ) (human), the “ratio IC50 (ATM) vs PI3Kgamma, selectivity with respect to PI3Kgamma” value is given as “at least 2000 times”. Further, the “ratio IC50 (ATM) vs PI3Kalpha, selectivity with respect to PI3Kalpha” value on PI3K p110α/p85α (human) is “at least 2000 times”.
